Values after ≈ are worked out from the molar mass of the structure shown. Active and inactive are the calls of the source. The rule behind the calls is not given here.
Assays:
[1] = target: AURKA (Homo sapiens, UniProt O14965); assay: Inhibition of recombinant human full-length His-tagged AURKA expressed in baculovirus expression system at 25 uM using FRET-labeled Ser/Thr 01 peptide as substrate measured after 1 hr by Z'-lyte assay relative to control; settings: probe FRET-labeled Ser/Thr 01 peptide
[2] = target: IKBKB (Homo sapiens, UniProt O14920); assay: in vitro; settings: probe FRET-labeled Ser/Thr 05 peptide
[3] = target: CDK1/cyclin B (Homo sapiens, UniProt P06493); assay: Inhibition of full-length recombinant human His-tagged CDK1/cyclin B expressed in baculovirus expression system at 25 uM using FRET-labeled Ser/Thr 18 peptide as substrate measured after 1 hr by Z'-lyte assay relative to control; settings: probe FRET-labeled Ser/Thr 18 peptide
[4] = target: FYN (Homo sapiens, UniProt P06241); assay: Inhibition of full-length recombinant human C-terminal His-tagged FYN cytoplasmic domain expressed in baculovirus expression system at 25 uM using FRET-labeled tyr 02 peptide as substrate measured after 1 hr by Z'-lyte assay relative to control; settings: probe FRET-labeled tyr 02 peptide
[5] = target: IKBKE (Homo sapiens, UniProt Q14164); assay: in vitro; settings: probe FRET-labeled Ser/Thr 11 peptide
[6] = target: BTK (Homo sapiens, UniProt Q06187); assay: Inhibition of full-length recombinant human His-tagged BTK cytoplasmic domain expressed in baculovirus expression system at 25 uM using FRET-labeled tyr 01 peptide as substrate measured after 1 hr by Z'-lyte assay relative to control; settings: probe FRET-labeled tyr 01 peptide
[7] = target: FGFR1 (Homo sapiens, UniProt P11362); assay: Inhibition of recombinant human His-tagged FGFR1 cytoplasmic domain (308 to 731 residues) expressed in baculovirus expression system at 25 uM using FRET-labeled tyr 04 peptide as substrate measured after 1 hr by Z'-lyte assay relative to control; settings: probe FRET-labeled tyr 04 peptide
[8] = target: Biotin carboxylase (Pseudomonas aeruginosa (strain ATCC 15692 / DSM 22644 / CIP 104116 / JCM14847 / LMG 12228 / 1C / PRS 101 / PAO1), UniProt P37798); assay: Inhibition of recombinant N-terminal His-tagged Pseudomonas aeruginosa PAO1 biotin carboxylase expressed in Escherichia coli Rosetta(DE3) pLysS cells using biotin as substrate by spectroscopic analysis
[9] = test system: Escherichia coli; assay: Antibacterial activity against Escherichia coli DM4100 harboring deltatolC mutant measured after 18 to 20 hrs by broth microdilution method; format: functional
[10] = test system: Pseudomonas aeruginosa; assay: Antibacterial activity against Pseudomonas aeruginosa PAO1 PAM1262 harboring MexAB-OprM/MexCD-OprJ/MexEF-OprN deletion mutant assessed as mutation frequency at 8 times MIC after 48 hrs by broth microdilution method; format: functional
[11] = target: CSNK2A1 (Homo sapiens, UniProt P68400); assay: Inhibition of recombinant human full-length His-tagged CSNK2A1 expressed in baculovirus expression system at 25 uM using FRET-labeled Ser/Thr 11 peptide as substrate measured after 1 hr by Z'-lyte assay relative to control; settings: probe FRET-labeled Ser/Thr 11 peptide
[12] = target: MET (Homo sapiens, UniProt P08581); assay: in vitro; settings: probe FRET-labeled Tyr 06 peptide
[13] = test system: Escherichia coli; assay: Induction of cytological changes in Escherichia coli ATCC 25922 assessed as formation of short chains of three to eight cells at 15 ug/ml measured after 2 hrs by FM 4-64/DAPI staining based microscopic analysis; format: functional, organism-based
[14] = target: MAPK1 (Homo sapiens, UniProt P28482); assay: Inhibition of recombinant human full-length GST-tagged MAPK1 […] expressed in Escherichia coli at 25 uM using FRET-labeled Ser/Thr 03 peptide as substrate measured after 1 hr by Z'-lyte assay relative to control; settings: probe FRET-labeled Ser/Thr 03 peptide
[15] = target: MAPK14 (Homo sapiens, UniProt Q16539); assay: Inhibition of recombinant human full-length GST-tagged MAPK14 expressed in Escherichia coli at 25 uM using FRET-labeled Ser/Thr 15 peptide as substrate measured after 1 hr by Z'-lyte assay relative to control; settings: probe FRET-labeled Ser/Thr 15 peptide
[16] = test system: Escherichia coli; assay: Induction of cytological changes in Escherichia coli ATCC 25922 assessed as formation of short chains of three to eight cells at 100 ug/ml measured after 2 hrs by FM 4-64/DAPI staining based microscopic analysis; format: functional, organism-based
[17] = target: SGK (Sgk1) (Homo sapiens, UniProt O00141); assay: Inhibition of recombinant human GST-tagged SGK catalytic domain (60 to 431 residues) expressed in baculovirus expression system at 25 uM using FRET-labeled Ser/Thr 06 peptide as substrate measured after 1 hr by Z'-lyte assay relative to control; settings: probe FRET-labeled Ser/Thr 06 peptide

Chain of FGFR1 (P11362 whole entry, the tested form may be a part): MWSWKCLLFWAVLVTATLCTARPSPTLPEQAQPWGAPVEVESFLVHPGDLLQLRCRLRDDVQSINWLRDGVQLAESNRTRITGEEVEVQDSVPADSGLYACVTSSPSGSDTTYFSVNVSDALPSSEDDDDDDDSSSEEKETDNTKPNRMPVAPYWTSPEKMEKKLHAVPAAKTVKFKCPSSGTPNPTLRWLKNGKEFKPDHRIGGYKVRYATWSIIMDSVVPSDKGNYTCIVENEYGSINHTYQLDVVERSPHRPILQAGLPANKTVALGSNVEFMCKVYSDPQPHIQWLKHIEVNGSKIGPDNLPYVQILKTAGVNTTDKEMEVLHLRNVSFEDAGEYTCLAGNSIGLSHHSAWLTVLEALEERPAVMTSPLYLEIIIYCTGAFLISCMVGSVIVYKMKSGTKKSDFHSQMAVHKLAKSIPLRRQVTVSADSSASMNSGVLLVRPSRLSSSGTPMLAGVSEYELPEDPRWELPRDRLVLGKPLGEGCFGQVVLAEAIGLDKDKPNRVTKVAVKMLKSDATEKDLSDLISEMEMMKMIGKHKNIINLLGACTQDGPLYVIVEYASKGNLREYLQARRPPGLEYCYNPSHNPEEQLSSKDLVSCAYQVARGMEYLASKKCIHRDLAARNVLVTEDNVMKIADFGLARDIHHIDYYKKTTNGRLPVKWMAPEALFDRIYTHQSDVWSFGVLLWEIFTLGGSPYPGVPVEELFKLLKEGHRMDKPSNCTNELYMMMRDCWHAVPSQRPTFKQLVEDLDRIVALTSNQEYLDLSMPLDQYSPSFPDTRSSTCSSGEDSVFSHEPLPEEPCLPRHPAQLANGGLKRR
Chain of CSNK2A1 (P68400 whole entry): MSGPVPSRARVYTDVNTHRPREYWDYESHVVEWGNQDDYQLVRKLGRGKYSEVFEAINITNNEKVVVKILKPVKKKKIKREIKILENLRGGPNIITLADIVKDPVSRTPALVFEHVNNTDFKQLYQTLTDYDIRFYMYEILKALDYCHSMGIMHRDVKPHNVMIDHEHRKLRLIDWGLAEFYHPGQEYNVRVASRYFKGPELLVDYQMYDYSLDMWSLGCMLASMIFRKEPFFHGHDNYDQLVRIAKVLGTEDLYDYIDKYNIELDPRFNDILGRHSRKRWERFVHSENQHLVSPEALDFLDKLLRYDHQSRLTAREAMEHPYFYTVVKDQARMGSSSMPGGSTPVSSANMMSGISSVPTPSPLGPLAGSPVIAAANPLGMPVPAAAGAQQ
Chain of AURKA (O14965 whole entry): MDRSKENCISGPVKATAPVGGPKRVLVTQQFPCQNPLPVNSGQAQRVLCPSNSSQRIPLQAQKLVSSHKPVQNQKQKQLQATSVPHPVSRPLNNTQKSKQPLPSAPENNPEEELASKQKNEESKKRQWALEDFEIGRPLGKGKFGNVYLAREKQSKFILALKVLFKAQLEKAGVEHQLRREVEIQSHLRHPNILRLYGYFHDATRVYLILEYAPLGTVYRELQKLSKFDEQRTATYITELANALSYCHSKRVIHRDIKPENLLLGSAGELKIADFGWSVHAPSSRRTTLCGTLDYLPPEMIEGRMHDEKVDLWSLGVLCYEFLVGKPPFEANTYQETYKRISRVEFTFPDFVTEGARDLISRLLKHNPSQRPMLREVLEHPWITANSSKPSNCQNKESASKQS
Chain of MAPK14 (Q16539 whole entry): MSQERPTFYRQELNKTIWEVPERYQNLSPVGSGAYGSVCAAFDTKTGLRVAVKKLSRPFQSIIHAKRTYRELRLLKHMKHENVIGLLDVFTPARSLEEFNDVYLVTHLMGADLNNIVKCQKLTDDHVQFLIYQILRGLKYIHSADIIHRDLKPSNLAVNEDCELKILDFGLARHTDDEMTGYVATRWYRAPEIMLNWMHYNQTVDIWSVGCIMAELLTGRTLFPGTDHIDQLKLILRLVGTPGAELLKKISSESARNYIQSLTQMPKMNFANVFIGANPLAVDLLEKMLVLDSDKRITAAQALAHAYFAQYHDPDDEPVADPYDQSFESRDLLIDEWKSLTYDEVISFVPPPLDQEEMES
Chain of IKBKE (Q14164 whole entry, the tested form may be a part): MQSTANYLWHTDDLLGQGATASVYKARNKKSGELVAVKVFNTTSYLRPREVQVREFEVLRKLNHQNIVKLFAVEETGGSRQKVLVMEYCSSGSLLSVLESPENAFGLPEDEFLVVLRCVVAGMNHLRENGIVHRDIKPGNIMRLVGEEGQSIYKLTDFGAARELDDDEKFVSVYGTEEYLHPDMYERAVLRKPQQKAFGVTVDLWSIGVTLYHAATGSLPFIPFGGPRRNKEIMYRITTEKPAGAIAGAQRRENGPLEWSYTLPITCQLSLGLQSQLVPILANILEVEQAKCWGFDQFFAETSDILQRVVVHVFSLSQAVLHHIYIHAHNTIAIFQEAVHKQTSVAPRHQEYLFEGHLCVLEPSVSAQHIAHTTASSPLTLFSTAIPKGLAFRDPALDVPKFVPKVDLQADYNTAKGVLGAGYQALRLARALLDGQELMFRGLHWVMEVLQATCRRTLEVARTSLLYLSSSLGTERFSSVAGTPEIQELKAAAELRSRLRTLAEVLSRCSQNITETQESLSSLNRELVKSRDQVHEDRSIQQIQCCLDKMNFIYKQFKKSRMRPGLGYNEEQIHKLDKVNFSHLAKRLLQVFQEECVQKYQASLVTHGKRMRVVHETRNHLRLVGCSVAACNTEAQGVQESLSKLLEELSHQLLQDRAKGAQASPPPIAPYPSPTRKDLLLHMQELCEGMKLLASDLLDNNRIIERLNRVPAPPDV
Chain of MET (P08581 whole entry): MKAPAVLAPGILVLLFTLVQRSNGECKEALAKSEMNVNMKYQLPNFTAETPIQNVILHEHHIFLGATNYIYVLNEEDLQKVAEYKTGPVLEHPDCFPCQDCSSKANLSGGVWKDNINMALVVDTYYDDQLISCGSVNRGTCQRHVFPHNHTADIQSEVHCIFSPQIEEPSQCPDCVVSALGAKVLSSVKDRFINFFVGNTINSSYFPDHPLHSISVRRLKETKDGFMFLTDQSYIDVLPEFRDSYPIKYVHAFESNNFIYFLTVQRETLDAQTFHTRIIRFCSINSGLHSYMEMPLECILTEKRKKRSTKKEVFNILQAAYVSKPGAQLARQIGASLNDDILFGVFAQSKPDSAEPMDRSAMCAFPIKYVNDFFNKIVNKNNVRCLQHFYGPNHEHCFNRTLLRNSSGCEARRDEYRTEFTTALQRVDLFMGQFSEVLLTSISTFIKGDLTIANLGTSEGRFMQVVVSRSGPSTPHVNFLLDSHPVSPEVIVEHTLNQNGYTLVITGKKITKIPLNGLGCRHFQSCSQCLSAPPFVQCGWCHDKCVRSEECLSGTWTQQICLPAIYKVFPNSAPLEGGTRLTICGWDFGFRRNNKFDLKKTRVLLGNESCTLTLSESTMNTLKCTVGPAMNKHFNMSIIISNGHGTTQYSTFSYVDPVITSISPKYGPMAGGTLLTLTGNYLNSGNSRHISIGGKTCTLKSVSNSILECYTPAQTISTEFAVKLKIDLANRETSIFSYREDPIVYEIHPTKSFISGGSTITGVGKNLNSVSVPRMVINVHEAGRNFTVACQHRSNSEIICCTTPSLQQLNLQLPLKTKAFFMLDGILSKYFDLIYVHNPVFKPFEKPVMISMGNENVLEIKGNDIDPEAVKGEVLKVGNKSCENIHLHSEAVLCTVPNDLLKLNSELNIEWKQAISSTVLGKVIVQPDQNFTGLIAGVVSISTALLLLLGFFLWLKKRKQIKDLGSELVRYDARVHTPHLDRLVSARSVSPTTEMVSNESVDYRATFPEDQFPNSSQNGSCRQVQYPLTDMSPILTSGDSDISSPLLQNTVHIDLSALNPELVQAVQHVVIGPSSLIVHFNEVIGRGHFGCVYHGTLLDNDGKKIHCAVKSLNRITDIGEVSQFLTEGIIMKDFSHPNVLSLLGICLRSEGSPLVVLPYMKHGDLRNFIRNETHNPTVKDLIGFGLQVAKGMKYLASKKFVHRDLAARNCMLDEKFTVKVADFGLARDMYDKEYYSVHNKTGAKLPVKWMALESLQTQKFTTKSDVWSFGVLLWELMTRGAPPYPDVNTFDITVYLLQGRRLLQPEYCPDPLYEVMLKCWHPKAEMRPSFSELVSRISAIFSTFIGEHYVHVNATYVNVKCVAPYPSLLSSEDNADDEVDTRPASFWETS
Chain of FYN (P06241 whole entry, the tested form may be a part): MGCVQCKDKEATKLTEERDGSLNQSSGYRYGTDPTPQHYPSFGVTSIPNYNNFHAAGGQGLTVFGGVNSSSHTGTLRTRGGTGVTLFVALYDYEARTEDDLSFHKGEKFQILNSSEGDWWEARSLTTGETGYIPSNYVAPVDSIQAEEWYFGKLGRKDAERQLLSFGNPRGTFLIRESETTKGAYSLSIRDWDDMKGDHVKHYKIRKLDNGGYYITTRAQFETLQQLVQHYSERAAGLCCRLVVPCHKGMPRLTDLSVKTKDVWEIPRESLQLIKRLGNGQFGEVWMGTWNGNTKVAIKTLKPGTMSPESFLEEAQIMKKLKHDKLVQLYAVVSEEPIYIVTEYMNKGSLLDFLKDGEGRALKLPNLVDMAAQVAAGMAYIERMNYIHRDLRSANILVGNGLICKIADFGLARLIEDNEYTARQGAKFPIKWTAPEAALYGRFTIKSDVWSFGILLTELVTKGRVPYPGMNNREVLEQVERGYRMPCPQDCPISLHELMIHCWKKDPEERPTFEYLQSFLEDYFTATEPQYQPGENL
Chain of MAPK1 (P28482 whole entry): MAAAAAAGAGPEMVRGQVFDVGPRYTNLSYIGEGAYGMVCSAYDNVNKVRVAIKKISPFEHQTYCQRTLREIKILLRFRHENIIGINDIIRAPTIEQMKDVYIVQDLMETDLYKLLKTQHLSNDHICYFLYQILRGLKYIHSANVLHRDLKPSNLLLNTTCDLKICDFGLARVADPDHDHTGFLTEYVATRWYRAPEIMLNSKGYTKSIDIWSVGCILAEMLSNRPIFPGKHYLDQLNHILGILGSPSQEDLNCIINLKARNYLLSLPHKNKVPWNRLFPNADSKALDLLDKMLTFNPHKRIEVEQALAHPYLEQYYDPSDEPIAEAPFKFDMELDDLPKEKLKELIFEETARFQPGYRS

Q: For `Nc1ncc2cc(-c3c(Cl)cccc3-c3cccnc3)c(N3C[C@@H]4[C@@H](N)[C@@H]4C3)nc2n1`, which inhibition at 1 h, 25 µM [1] is on record?
A: 9%

Q: And the inhibition at 1 h, 25 µM [2]?
A: 5%

Q: What about the inhibition at 1 h, 25 µM [3] of the same compound?
A: 4%

Q: What about the inhibition at 1 h, 25 µM [4] of the same compound?
A: 12%

Q: And the inhibition at 1 h, 25 µM [5]?
A: 3%

Q: And the inhibition at 1 h, 25 µM [6]?
A: 16%

Q: And the inhibition at 1 h, 25 µM [7]?
A: 57%

Q: And the IC50 [8]?
A: ≤ 15 nM

Q: What about the MIC [9] of the same compound?
A: 0.03 µg/mL (≈ 0.0698 µM)

Q: And the Activity [10]?
A: 9 ×10⁻⁹ No_unit

Q: What about the inhibition at 1 h, 25 µM [11] of the same compound?
A: 0%

Q: And the inhibition at 1 h, 25 µM [12]?
A: 7%

Q: For `CC(C)COc1cccc(Cl)c1-c1cc2cnc(N)nc2nc1N1C[C@@H]2[C@@H](N)[C@@H]2C1`, which inhibition at 1 h, 25 µM [4] is on record?
A: 12%

Q: And the inhibition at 1 h, 25 µM [5]?
A: 0%

Q: What about the Activity [13] of the same compound?
A: Active

Q: And the inhibition at 1 h, 25 µM [14]?
A: 6%

Q: And the inhibition at 1 h, 25 µM [15]?
A: 5%

Q: What about the inhibition at 1 h, 25 µM [7] of the same compound?
A: 60%

Q: And the IC50 [8]?
A: ≤ 15 nM

Q: What about the MIC [9] of the same compound?
A: 0.03 µg/mL (≈ 0.0706 µM)

Q: And the Activity [10]?
A: 2 ×10⁻⁹ No_unit

Q: And the inhibition at 1 h, 25 µM [12]?
A: 15%

Q: Which inhibition at 1 h, 25 µM [1] does the source give for `Nc1ncc2cc(-c3c(Br)cccc3Br)c(N)nc2n1` here?
A: 20%

Q: And the inhibition at 1 h, 25 µM [3]?
A: 18%

Q: What about the inhibition at 1 h, 25 µM [14] of the same compound?
A: 26%

Q: And the Activity [16]?
A: Active

Q: What about the inhibition at 1 h, 25 µM [15] of the same compound?
A: 24%

Q: What about the inhibition at 1 h, 25 µM [7] of the same compound?
A: 78%

Q: What about the inhibition at 1 h, 25 µM [11] of the same compound?
A: 4%

Q: And the inhibition at 1 h, 25 µM [17]?
A: 7%

From ChEMBL document CHEMBL4406811, “Optimization and Mechanistic Characterization of Pyridopyrimidine Inhibitors of Bacterial Biotin Carboxylase” (J Med Chem, 2019)
